Laboratory results: ChEMBL document CHEMBL1201862, “PubChem BioAssay data set” (2004)
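These data come from cells grown in 96-well plates and exposed to compound for 48 hours at five concentrations. GI50 = concentration required for 50% inhibition of growth.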 Active and inactive are the calls of the source. Rule as the data show it: active = GI50 up to about 1.1 µM and inactive = higher.

What was measured:
Test in all cases: DTP human tumour cell line panel, 48 h
786-0 = tested on: 786-0
A549 = tested on: A549
CAKI-1 = tested on: CAKI-1
CCRF-CEM = tested on: CCRF-CEM
COLO 205 = tested on: COLO 205
DLD-1 = tested on: DLD-1
DMS-114 = tested on: DMS-114
DMS-273 = tested on: DMS-273
EKVX = tested on: EKVX
HCC 2998 = tested on: HCC 2998
HCT-116 = tested on: HCT-116
HL-60 = tested on: HL-60
HOP-62 = tested on: HOP-62
HOP-92 = tested on: HOP-92
HT-29 = tested on: HT-29
K562 = tested on: K562
KM12 = tested on: KM12
LXFL 529 = tested on: LXFL 529
M14 = tested on: M14
M19-MEL = tested on: M19-MEL
MOLT-4 = tested on: MOLT-4
Malme-3M = tested on: Malme-3M
NCI-H226 = tested on: NCI-H226
NCI-H23 = tested on: NCI-H23
NCI-H522 = tested on: NCI-H522
OVCAR-3 = tested on: OVCAR-3
OVCAR-4 = tested on: OVCAR-4
OVCAR-8 = tested on: OVCAR-8
RPMI-8226 = tested on: RPMI-8226
SF-268 = tested on: SF-268
SF-295 = tested on: SF-295
SF-539 = tested on: SF-539
SK-MEL-28 = tested on: SK-MEL-28
SK-MEL-2 = tested on: SK-MEL-2
SK-MEL-5 = tested on: SK-MEL-5
SK-OV-3 = tested on: SK-OV-3
SN12C = tested on: SN12C
SNB-19 = tested on: SNB-19
SNB-75 = tested on: SNB-75
SNB-78 = tested on: SNB-78
SR = tested on: SR
SW-620 = tested on: SW-620
TK-10 = tested on: TK-10
UACC-257 = tested on: UACC-257
UACC-62 = tested on: UACC-62
UO-31 = tested on: UO-31
A498 = tested on: A498
HCT-15 = tested on: HCT-15
HOP-18 = tested on: HOP-18
IGROV-1 = tested on: IGROV-1
KM-20L2 = tested on: KM-20L2
LOX IMVI = tested on: LOX IMVI
MCF7 = tested on: MCF7
NCI-H460 = tested on: NCI-H460
NCI/ADR-RES = tested on: NCI/ADR-RES
OVCAR-5 = tested on: OVCAR-5
RXF 393 = tested on: RXF 393
U-251 = tested on: U-251
XF498 = tested on: XF498

Measured: GI50

O=S1(=O)OCCOS(=O)(=O)C1(Br)Br
inactive: 786-0 > 100 µM | A549 > 100 µM | CAKI-1 > 100 µM | CCRF-CEM > 100 µM | COLO 205 > 100 µM | DLD-1 > 100 µM | DMS-114 > 100 µM | DMS-273 > 100 µM | EKVX > 100 µM | HCC 2998 > 100 µM | HCT-116 > 100 µM | HL-60 > 100 µM | HOP-62 > 100 µM | HOP-92 > 100 µM | HT-29 > 100 µM | K562 > 100 µM | KM12 > 100 µM | LXFL 529 > 100 µM | M14 > 100 µM | M19-MEL > 100 µM | MOLT-4 > 100 µM | Malme-3M > 100 µM | NCI-H23 > 100 µM | NCI-H522 > 100 µM | OVCAR-3 > 100 µM | OVCAR-4 > 100 µM | OVCAR-8 > 100 µM | RPMI-8226 > 100 µM | SF-268 > 100 µM | SF-295 > 100 µM | SF-539 > 100 µM | SK-MEL-28 > 100 µM | SK-MEL-2 > 100 µM | SK-MEL-5 > 100 µM | SK-OV-3 > 100 µM | SN12C > 100 µM | SNB-19 80.7 µM | SNB-75 > 100 µM | SNB-78 > 100 µM | SR > 100 µM | SW-620 > 100 µM | TK-10 > 100 µM | UACC-257 > 100 µM | UACC-62 > 100 µM | UO-31 62.7 µM
active: NCI-H226 0.375 µM

CCCCc1nccc2c(C)c3[nH]c4ccccc4c3cc12
2.07 µM: HCT-15
active: COLO 205 0.92 µM | DMS-273 0.883 µM | HOP-18 0.486 µM
inactive: A498 4.67 µM | A549 3.87 µM | CAKI-1 2.59 µM | CCRF-CEM 2.85 µM | DLD-1 2.81 µM | DMS-114 1.59 µM | EKVX 4.48 µM | HCC 2998 3.44 µM | HCT-116 1.77 µM | HL-60 1.83 µM | HOP-62 3.68 µM | HOP-92 3.74 µM | HT-29 2.62 µM | IGROV-1 3.33 µM | K562 1.95 µM | KM-20L2 2.86 µM | KM12 3.09 µM | LOX IMVI 1.5 µM | M19-MEL 3.1 µM | MCF7 2.69 µM | MOLT-4 1.98 µM | Malme-3M 6.04 µM | NCI-H226 7.57 µM | NCI-H23 3.66 µM | NCI-H460 2.17 µM | NCI-H522 1.91 µM | NCI/ADR-RES 1.71 µM | OVCAR-3 2.79 µM | OVCAR-4 3.91 µM | OVCAR-5 6.44 µM | OVCAR-8 2.84 µM | RPMI-8226 2 µM | RXF 393 2.22 µM | SF-268 5.87 µM | SF-295 2.68 µM | SF-539 2.45 µM | SK-MEL-28 4.26 µM | SK-MEL-2 3.88 µM | SK-MEL-5 2.24 µM | SK-OV-3 5.81 µM | SN12C 6.98 µM | SNB-19 5 µM | SNB-75 5.93 µM | SNB-78 5.64 µM | SW-620 2.26 µM | U-251 3.37 µM | UACC-257 2.42 µM | UACC-62 2.8 µM | UO-31 1.86 µM

O=C1CC2=CCCC2O1 (stereo unspecified)
inactive: 786-0 > 100 µM | A498 > 100 µM | A549 > 100 µM | CAKI-1 > 100 µM | CCRF-CEM > 100 µM | COLO 205 > 100 µM | DLD-1 > 100 µM | DMS-114 > 100 µM | DMS-273 > 100 µM | EKVX > 100 µM | HCC 2998 > 100 µM | HCT-116 > 100 µM | HL-60 > 100 µM | HOP-62 > 100 µM | HOP-92 > 100 µM | HT-29 > 100 µM | IGROV-1 > 100 µM | K562 > 100 µM | KM12 > 100 µM | LOX IMVI > 100 µM | LXFL 529 > 100 µM | M14 > 100 µM | M19-MEL > 100 µM | MOLT-4 > 100 µM | Malme-3M > 100 µM | NCI-H23 > 100 µM | NCI-H460 > 100 µM | NCI-H522 > 100 µM | OVCAR-3 > 100 µM | OVCAR-4 > 100 µM | OVCAR-8 > 100 µM | RPMI-8226 > 100 µM | RXF 393 > 100 µM | SF-268 > 100 µM | SF-295 > 100 µM | SF-539 > 100 µM | SK-MEL-28 > 100 µM | SK-MEL-2 > 100 µM | SK-MEL-5 > 100 µM | SK-OV-3 > 100 µM | SN12C > 100 µM | SNB-19 > 100 µM | SNB-75 > 100 µM | SNB-78 > 100 µM | SW-620 > 100 µM | TK-10 > 100 µM | U-251 > 100 µM | UACC-257 > 100 µM | UACC-62 > 100 µM | UO-31 > 100 µM | XF498 > 100 µM
> 100 µM: HCT-15
